# Assay results as given in US12655116B2, “Substituted isophthalic acid diamides” (Bayer Aktiengesellschaft, priority 2020, dated 2026).
# How the values were obtained:
# POLCO = experiment: Pre-emergence herbicidal action against POLCO; assay type: in vivo, Polygonum convolvulus; settings: Fallopia convolvulus, 504 h
# Method in brief: (§1)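 Visual rating at 3 weeks vs untreated pots; 0–100% scale, 100% = plants died. Treatment: aqueous WP/EC spray onto covering soil, 600–800 l/ha, 0.2% wetter, seeds in sandy loam.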
# AMARE [1] = experiment: Post-emergence herbicidal action against AMARE; assay type: in vivo, Amaranthus retroflexus; settings: Amaranthus retroflexus, 504 h, 20 g/ha, visual assessment about 3 weeks after treatment, 100% = plants have died, 0% = like control plants
# Method in brief: (§2)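 Weeds in sandy loam soil received a post-emergence spray at the one-leaf stage. Compounds were applied as WP or EC in water, 600 to 800 l/ha, with 0.2% wetting agent. Activity in % was judged visually after roughly 3 weeks against untreated plants.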
# MATIN [2] = experiment: Post-emergence herbicidal action against MATIN; assay type: in vivo, Matricaria inodora; settings: Tripleurospermum inodorum, 504 h
# Method in brief: as §2
# MATIN [3] = experiment: Pre-emergence herbicidal action against MATIN; assay type: in vivo, Matricaria inodora; settings: Tripleurospermum inodorum, 504 h
# Method in brief: as §1
# ALOMY [4] = experiment: Pre-emergence herbicidal action against ALOMY; assay type: in vivo, Alopecurus myosuroides; settings: Alopecurus myosuroides, 504 h; 80 g/ha, pre-emergence, scored visually after 3 weeks vs untreated controls (100% = plants have died, 0% = like control plants)
# Method in brief: as §1
# ABUTH [5] = experiment: Pre-emergence herbicidal action against ABUTH; assay type: in vivo, Abutilon theophrasti; settings: Abutilon theophrasti, 504 h
# Method in brief: as §1
# VIOTR [6] = experiment: Post-emergence herbicidal action against VIOTR; assay type: in vivo, Viola tricolor; settings: Viola tricolor, 504 h, 20 g/ha
# Method in brief: as §2
# HORMU = experiment: Pre-emergence herbicidal action against HORMU; assay type: in vivo, Hordeum murinum; settings: Hordeum murinum, 504 h; 80 g/ha, pre-emergence
# Source text: Seeds of monocotyledonous and dicotyledonous weed plants and crop plants are laid out in sandy loam soil in wood-fiber pots and covered with soil. The compounds of the invention, formulated in the form of wettable powders (WP) or as emulsion concentrates (EC), are then applied to the surface of the covering soil in the form of an aqueous suspension or emulsion at a water application rate equivalent to 600 to 800 l/ha, with addition of 0.2% wetting agent. After the treatment, the pots are placed in a greenhouse and kept under good growth conditions for the trial plants. The damage to the test plants is scored visually after a test period of 3 weeks by comparison with untreated controls (herbicidal activity in percent (%): 100% activity=the plants have died, 0% activity=like control plants). […] The tables below illustrate, in an illustrative manner, the post-emergence herbicidal action of the compounds of the invention, the herbicidal activity being stated in percent.
# ALOMY [7] = experiment: Post-emergence herbicidal action against ALOMY; assay type: in vivo, Alopecurus myosuroides; settings: Alopecurus myosuroides, 504 h, dosage 20 g/ha, visual assessment about 3 weeks after treatment vs untreated controls
# Method in brief: as §2
# STEME [8] = experiment: Post-emergence herbicidal action against STEME; assay type: in vivo, Stellaria media; settings: Stellaria media, 504 h, 20 g/ha
# Method in brief: as §2
# AVEFA = experiment: Pre-emergence herbicidal action against AVEFA; assay type: in vivo, Avena fatua; settings: Avena fatua, 504 h, pre-emergence
# Method in brief: as §1
# VIOTR [9] = experiment: Pre-emergence herbicidal action against VIOTR; assay type: in vivo, Viola tricolor; settings: Viola tricolor, 504 h
# Method in brief: as §1
# PHBPU = experiment: Post-emergence herbicidal action against PHBPU; assay type: in vivo, Pharbitis purpurea; settings: Ipomoea purpurea, 504 h
# Method in brief: as §2
# ABUTH [10] = experiment: Post-emergence herbicidal action against ABUTH; assay type: in vivo, Abutilon theophrasti; settings: Abutilon theophrasti, 504 h, visual assessment about 3 weeks after treatment vs untreated controls
# Method in brief: as §2
# STEME [11] = experiment: Pre-emergence herbicidal action against STEME; assay type: in vivo, Stellaria media; settings: Stellaria media, 504 h
# Method in brief: as §1
# AMARE [12] = experiment: Pre-emergence herbicidal action against AMARE; assay type: in vivo, Amaranthus retroflexus; settings: Amaranthus retroflexus, 504 h, scored visually after 3 weeks vs untreated controls, 100% = plants have died, 0% = like control plants
# Method in brief: as §1
# DIGSA = experiment: Pre-emergence herbicidal action against DIGSA; assay type: in vivo, Digitaria sanguinalis; settings: Digitaria sanguinalis, 504 h, dosage 80 g/ha
# Method in brief: as §1
compound,measurement,setting,value
CCCn1nnnc1NC(=O)c1ccc(C(F)(F)F)c(C(=O)NCC)c1C [Example 3-26],pest or weed control at 20 g/ha,POLCO; dosage 20 g/ha,80%
same,pest or weed control at 80 g/ha,POLCO; dosage 80 g/ha,90%
same,pest or weed control at 20 g/ha,AMARE [1],90%
same,pest or weed control at 5 g/ha,MATIN [2]; dosage 5 g/ha,90%
same,pest or weed control at 20 g/ha,MATIN [2]; dosage 20 g/ha,90%
same,pest or weed control at 20 g/ha,MATIN [3]; dosage 20 g/ha,90%
same,pest or weed control at 80 g/ha,MATIN [3]; dosage 80 g/ha,100%
same,pest or weed control at 80 g/ha,ALOMY [4],80%
same,pest or weed control at 80 g/ha,"ABUTH [5]; 80 g/ha, scored visually after 3 weeks vs untreated controls (100% = plants have died, 0% = like control plants)",100%
same,pest or weed control at 20 g/ha,"ABUTH [5]; dosage 20 g/ha, scored visually after 3 weeks vs untreated controls, 100% = plants have died, 0% = like control plants, read-out: Pre-emergence action against ABUTH (herbicidal activity in percent)",100%
same,pest or weed control at 20 g/ha,VIOTR [6],90%
same,pest or weed control at 80 g/ha,HORMU,80%
same,pest or weed control at 20 g/ha,ALOMY [7],80%
same,pest or weed control at 20 g/ha,STEME [8],90%
same,pest or weed control at 80 g/ha,AVEFA; 80 g/ha,100%
same,pest or weed control at 20 g/ha,"AVEFA; 20 g/ha, scored visually after 3 weeks, 100% = plants have died, 0% = like control plants",80%
same,pest or weed control at 20 g/ha,VIOTR [9]; dosage 20 g/ha,100%
same,pest or weed control at 80 g/ha,VIOTR [9]; dosage 80 g/ha,100%
same,pest or weed control at 5 g/ha,PHBPU; dosage 5 g/ha,80%
same,pest or weed control at 20 g/ha,PHBPU; dosage 20 g/ha,90%
same,pest or weed control at 5 g/ha,ABUTH [10]; dosage 5 g/ha,80%
same,pest or weed control at 20 g/ha,ABUTH [10]; dosage 20 g/ha,90%
same,pest or weed control at 20 g/ha,STEME [11]; dosage 20 g/ha,80%
same,pest or weed control at 80 g/ha,STEME [11]; dosage 80 g/ha,100%
same,pest or weed control at 20 g/ha,AMARE [12]; 20 g/ha,100%
same,pest or weed control at 80 g/ha,AMARE [12]; 80 g/ha,100%
same,pest or weed control at 80 g/ha,DIGSA,100%
